Assay results from ChEMBL document CHEMBL5728082, “Aryl, heteroaryl, and heterocyclic compounds for treatment of medical disorders” (2020).
pIC50: −log10 of the molar value.

Molecular target: Complement factor D (Homo sapiens, UniProt P00746)
Test: Inhibition Assay: Human Factor D (purified from human serum, Complement Technology, Inc.) at 80 nM final concentration was incubated with test compound at various concentrations for 5 minutes at room temperature in 50 mM Tris, 1M NaCl, pH 7.5. A synthetic substrate Z-L-Lys-SBzl and DTNB (Ellman's reagent) are added to final concentrations of 100 Î¼M each. […] IC50 values are calculated by nonlinear regression of complement Factor D reaction rates as a function of test compound concentration.

Chain of Complement factor D (P00746 whole entry): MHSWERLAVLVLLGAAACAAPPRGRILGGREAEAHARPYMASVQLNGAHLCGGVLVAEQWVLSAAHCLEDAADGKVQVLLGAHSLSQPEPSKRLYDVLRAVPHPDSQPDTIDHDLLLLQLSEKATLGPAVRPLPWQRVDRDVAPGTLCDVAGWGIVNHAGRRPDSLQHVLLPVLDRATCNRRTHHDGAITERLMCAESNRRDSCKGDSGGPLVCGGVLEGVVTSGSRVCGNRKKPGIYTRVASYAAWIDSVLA

Q: How did the pIC50 turn out when `CC(=O)c1nn(CC(=O)N2[C@H](C(=O)N[C@H](C)[C@H]3CC3(Cl)Cl)C[C@@]3(C)C[C@@H]23)c2ccc(-c3cnc(C)nc3)cc12` was run?
A: > 6.00
